# Measurements from patent publication US12077503B2, “Substituted cyclic amides and their use as herbicides” (FMC CORPORATION, priority 2015, dated 2024).
# How the values were obtained:
# Type in all cases: in vivo
# [1] = tested on: barnyardgrass (Echinochloa crus-galli); assay: Test G Pre-Emergence Protocol; details: evaluated after 13 days
# Description: (§1) Seeds of corn (Zea mays), giant foxtail (Setaria faberi), barnyardgrass (Echinochloa crus-galli), ivy-leaved morning glory (Ipomoea hederacea), redroot pigweed (Amaranthus retroflexus) and velvetleaf (Abutilon theophrasti) were sown in standard soil in pots. After cultivation for one day under controlled conditions in a glasshouse (at 24/16° C., day/night; 14 hours light; 65% humidity), the plants were sprayed with an aqueous spray solution derived from the formulation of the technical active ingredient in acetone/water (50:50) solution containing 0.5% Tween 20 (polyoxyethylene sorbitan monolaurate, CAS RN 9005-64-5) to give a final dose of 15.625, 62.5 or 250 g/ha of test compound.
# (§2) The test plants were then grown on under controlled conditions in a glasshouse (at 24/16° C., day/night; 14 hours light; 65% humidity) and watered twice daily. After 13 days the test was evaluated (100=total damage to plant; 0=no damage to plant). A dash (-) means no test result.
# corn (Zea mays) [2] = assay: Test G Pre-Emergence Protocol; details: evaluated after 13 days
# Description: as §1, §2
# [3] = tested on: giant foxtail (Setaria faberi); assay: Test G Pre-Emergence Protocol; details: evaluated after 13 days
# Description: as §1, §2
# [4] = tested on: ivy-leaved morning glory (Ipomoea hederacea); assay: Test G Pre-Emergence Protocol; details: evaluated after 13 days
# Description: as §1, §2
# [5] = tested on: redroot pigweed (Amaranthus retroflexus); assay: Test G Pre-Emergence Protocol; details: evaluated after 13 days
# Description: as §1, §2
# [6] = tested on: velvetleaf (Abutilon theophrasti); assay: Test G Pre-Emergence Protocol; details: evaluated after 13 days
# Description: as §1, §2
# [7] = tested on: barnyardgrass (Echinochloa crus-galli); assay: Test G Post-Emergence Protocol
# Description: as §1, with “8 days” for “one day”
# as §2
# corn (Zea mays) [8] = assay: Test G Post-Emergence Protocol
# Description: as §1, with “8 days” for “one day”
# as §2
# [9] = tested on: giant foxtail (Setaria faberi); assay: Test G Post-Emergence Protocol
# Description: as §1, with “8 days” for “one day”
# as §2
# [10] = tested on: ivy-leaved morning glory (Ipomoea hederacea); assay: Test G Post-Emergence Protocol
# Description: as §1, with “8 days” for “one day”
# as §2
# [11] = tested on: redroot pigweed (Amaranthus retroflexus); assay: Test G Post-Emergence Protocol
# Description: as §1, with “8 days” for “one day”
# as §2
# [12] = tested on: velvetleaf (Abutilon theophrasti); assay: Test G Post-Emergence Protocol
# Description: as §1, with “8 days” for “one day”
# as §2
# [13] = 62.5 g ai/ha, 100=total damage to plant, 0=no damage to plant
# [14] = 15.625 g ai/ha, evaluated after 13 days (100=total damage to plant; 0=no damage to plant)
# [15] = 62.5 g ai/ha, evaluated after 13 days, 100=total damage to plant, 0=no damage to plant
# [16] = 250 g ai/ha, evaluated after 13 days, 100=total damage to plant, 0=no damage to plant
smiles,measurement,setting,value
COc1c(Cl)ccc([C@H]2CN(C)C(=O)[C@@H]2C(=O)Nc2cccc(F)c2F)c1F (racemic) [Compound 1476],Barnyardgrass damage rating (100=total damage to plant; 0=no damage to plant),[1]; 250 g ai/ha,80
same,pest or weed control at 15.625 g/ha,"[1]; Echinochloa crus-galli, pre-emergence, 312 h, 15.625 g ai/ha, read-out: Barnyard grass damage rating (100=total damage to plant; 0=no damage to plant)",60%
same,pest or weed control at 62.5 g/ha,"[1]; Echinochloa crus-galli, pre-emergence, 312 h, 62.5 g ai/ha, 100=total damage to plant, 0=no damage to plant, read-out: plant damage rating, Barnyardgrass",70%
same,Corn damage rating (100=total damage to plant; 0=no damage to plant),corn (Zea mays) [2]; 15.625 g ai/ha,0
same,Corn damage rating (100=total damage to plant; 0=no damage to plant),corn (Zea mays) [2]; 250 g ai/ha,50
same,plant injury at 62.5 g/ha,"corn (Zea mays) [2]; Zea mays, pre-emergence, 312 h, 62.5 g ai/ha, 100=total damage to plant, 0=no damage to plant, read-out: plant damage rating, Corn",0%
same,"Foxtail, Giant damage rating (100=total damage to plant; 0=no damage to plant)",[3]; 15.625 g ai/ha,70
same,"Foxtail, Giant damage rating (100=total damage to plant; 0=no damage to plant)",[3]; 250 g ai/ha,80
same,pest or weed control at 62.5 g/ha,"[3]; Setaria faberi, pre-emergence, 312 h, 62.5 g ai/ha, 100=total damage to plant, 0=no damage to plant, read-out: plant damage rating, Foxtail, Giant",80%
same,"Morningglory, Ivy-leaved damage rating (100=total damage to plant; 0=no damage to plant)",[4]; 250 g ai/ha,0
same,pest or weed control at 15.625 g/ha,"[4]; Ipomoea, pre-emergence, 312 h, 15.625 g ai/ha, read-out: Morning-glory, Ivy-leaved damage rating (100=total damage to plant; 0=no damage to plant)",0%
same,pest or weed control at 62.5 g/ha,"[4]; Ipomoea, pre-emergence, 312 h, 62.5 g ai/ha, 100=total damage to plant, 0=no damage to plant, read-out: plant damage rating, Morningglory, Ivy-leaved",0%
same,"Pigweed, Redroot damage rating (100=total damage to plant; 0=no damage to plant)",[5]; 15.625 g ai/ha,0
same,"Pigweed, Redroot damage rating (100=total damage to plant; 0=no damage to plant)",[5]; 250 g ai/ha,0
same,pest or weed control at 62.5 g/ha,"[5]; Amaranthus retroflexus, pre-emergence, 312 h, 62.5 g ai/ha, 100=total damage to plant, 0=no damage to plant, read-out: plant damage rating, Pigweed, Redroot",0%
same,Velvetleaf damage rating (100=total damage to plant; 0=no damage to plant),[6]; 15.625 g ai/ha,0
same,Velvetleaf damage rating (100=total damage to plant; 0=no damage to plant),[6]; 250 g ai/ha,0
same,pest or weed control at 62.5 g/ha,"[6]; Abutilon theophrasti, pre-emergence, 312 h, 62.5 g ai/ha, 100=total damage to plant, 0=no damage to plant, read-out: plant damage rating, Velvetleaf",0%
same,pest or weed control at 15.625 g/ha,"[7]; Echinochloa crus-galli, post-emergence, 312 h, 15.625 g ai/ha, evaluated after 13 days (100=total damage to plant; 0=no damage to plant), read-out: Barnyardgrass damage rating",40%
same,pest or weed control at 62.5 g/ha,"[7]; Echinochloa crus-galli, post-emergence, 312 h, 62.5 g ai/ha, evaluated after 13 days, read-out: Barnyardgrass damage rating (100=total damage to plant; 0=no damage to plant)",50%
same,pest or weed control at 250 g/ha,"[7]; Echinochloa crus-galli, post-emergence, 312 h, 250 g ai/ha, evaluated after 13 days, read-out: damage to plant, Barnyardgrass (100=total damage to plant; 0=no damage to plant)",60%
same,plant injury at 15.625 g/ha,"corn (Zea mays) [8]; Zea mays, post-emergence, 312 h, 15.625 g ai/ha, evaluated after 13 days (100=total damage to plant; 0=no damage to plant), read-out: Corn damage rating",10%
same,plant injury at 62.5 g/ha,"corn (Zea mays) [8]; Zea mays, post-emergence, 312 h, 62.5 g ai/ha, evaluated after 13 days, read-out: Corn damage rating (100=total damage to plant; 0=no damage to plant)",20%
same,plant injury at 250 g/ha,"corn (Zea mays) [8]; Zea mays, post-emergence, 312 h, 250 g ai/ha, evaluated after 13 days, read-out: damage to plant, Corn (100=total damage to plant; 0=no damage to plant)",70%
same,pest or weed control at 15.625 g/ha,"[9]; Setaria faberi, post-emergence, 312 h, 15.625 g ai/ha, evaluated after 13 days (100=total damage to plant; 0=no damage to plant), read-out: Foxtail, Giant damage rating",60%
same,pest or weed control at 62.5 g/ha,"[9]; Setaria faberi, post-emergence, 312 h, 62.5 g ai/ha, evaluated after 13 days, read-out: Foxtail, Giant damage rating (100=total damage to plant; 0=no damage to plant)",70%
same,pest or weed control at 250 g/ha,"[9]; Setaria faberi, post-emergence, 312 h, 250 g ai/ha, evaluated after 13 days, read-out: damage to plant, Foxtail, Giant (100=total damage to plant; 0=no damage to plant)",70%
same,pest or weed control at 15.625 g/ha,"[10]; Ipomoea, post-emergence, 312 h, 15.625 g ai/ha, evaluated after 13 days (100=total damage to plant; 0=no damage to plant), read-out: Morningglory, Ivy-leaved damage rating",20%
same,pest or weed control at 62.5 g/ha,"[10]; Ipomoea, post-emergence, 312 h, 62.5 g ai/ha, evaluated after 13 days, read-out: Morningglory, Ivy-leaved damage rating (100=total damage to plant; 0=no damage to plant)",20%
same,pest or weed control at 250 g/ha,"[10]; Ipomoea, post-emergence, 312 h, 250 g ai/ha, evaluated after 13 days, read-out: damage to plant, Morningglory, Ivy-leaved (100=total damage to plant; 0=no damage to plant)",60%
same,pest or weed control at 15.625 g/ha,"[11]; Amaranthus retroflexus, post-emergence, 312 h, 15.625 g ai/ha, evaluated after 13 days (100=total damage to plant; 0=no damage to plant), read-out: Pigweed, Redroot damage rating",10%
same,pest or weed control at 62.5 g/ha,"[11]; Amaranthus retroflexus, post-emergence, 312 h, 62.5 g ai/ha, evaluated after 13 days, read-out: Pigweed, Redroot damage rating (100=total damage to plant; 0=no damage to plant)",0%
same,pest or weed control at 250 g/ha,"[11]; Amaranthus retroflexus, post-emergence, 312 h, 250 g ai/ha, evaluated after 13 days, read-out: damage to plant, Pigweed, Redroot (100=total damage to plant; 0=no damage to plant)",10%
same,pest or weed control at 15.625 g/ha,"[12]; Abutilon theophrasti, post-emergence, 312 h, 15.625 g ai/ha, evaluated after 13 days (100=total damage to plant; 0=no damage to plant), read-out: Velvetleaf damage rating",10%
same,pest or weed control at 62.5 g/ha,"[12]; Abutilon theophrasti, post-emergence, 312 h, 62.5 g ai/ha, evaluated after 13 days, read-out: Velvetleaf damage rating (100=total damage to plant; 0=no damage to plant)",0%
same,pest or weed control at 250 g/ha,"[12]; Abutilon theophrasti, post-emergence, 312 h, 250 g ai/ha, evaluated after 13 days, read-out: damage to plant, Velvetleaf (100=total damage to plant; 0=no damage to plant)",10%
CN1C[C@H](c2ccc(C(F)(F)F)cc2)[C@@H](C(=O)Nc2c[n+]([O-])ccc2C(F)(F)F)C1=O (racemic) [Compound 1732],Barnyardgrass damage rating (100=total damage to plant; 0=no damage to plant),[1]; 15.625 g ai/ha,0
same,Barnyardgrass damage rating,[1]; [13],0
same,Barnyardgrass damage rating (100=total damage to plant; 0=no damage to plant),[1]; 250 g ai/ha,0
same,Corn damage rating (100=total damage to plant; 0=no damage to plant),corn (Zea mays) [2]; 15.625 g ai/ha,0
same,Corn damage rating,corn (Zea mays) [2]; [13],0
same,Corn damage rating (100=total damage to plant; 0=no damage to plant),corn (Zea mays) [2]; 250 g ai/ha,0
same,"Foxtail, Giant damage rating (100=total damage to plant; 0=no damage to plant)",[3]; 15.625 g ai/ha,0
same,"Foxtail, Giant damage rating",[3]; [13],20
same,"Foxtail, Giant damage rating (100=total damage to plant; 0=no damage to plant)",[3]; 250 g ai/ha,50
same,"Morningglory, Ivy-leaved damage rating (100=total damage to plant; 0=no damage to plant)",[4]; 15.625 g ai/ha,0
same,"Morningglory, Ivy-leaved damage rating",[4]; [13],0
same,"Morningglory, Ivy-leaved damage rating (100=total damage to plant; 0=no damage to plant)",[4]; 250 g ai/ha,0
same,"Pigweed, Redroot damage rating (100=total damage to plant; 0=no damage to plant)",[5]; 15.625 g ai/ha,0
same,"Pigweed, Redroot damage rating",[5]; [13],0
same,"Pigweed, Redroot damage rating (100=total damage to plant; 0=no damage to plant)",[5]; 250 g ai/ha,10
same,Velvetleaf damage rating (100=total damage to plant; 0=no damage to plant),[6]; 15.625 g ai/ha,0
same,Velvetleaf damage rating,[6]; [13],0
same,Velvetleaf damage rating (100=total damage to plant; 0=no damage to plant),[6]; 250 g ai/ha,10
same,Barnyardgrass damage rating,[7]; [14],0
same,Barnyardgrass damage rating,[7]; [15],0
same,Barnyardgrass damage rating,[7]; [16],20
same,Corn damage rating,corn (Zea mays) [8]; [14],0
same,Corn damage rating,corn (Zea mays) [8]; [15],0
same,Corn damage rating,corn (Zea mays) [8]; [16],0
same,"Foxtail, Giant damage rating",[9]; [14],0
same,"Foxtail, Giant damage rating",[9]; [15],10
same,"Foxtail, Giant damage rating",[9]; [16],50
same,"Morningglory, Ivy-leaved damage rating",[10]; [14],0
same,"Morningglory, Ivy-leaved damage rating",[10]; [15],0
same,"Morningglory, Ivy-leaved damage rating",[10]; [16],0
same,"Pigweed, Redroot damage rating",[11]; [14],0
same,"Pigweed, Redroot damage rating",[11]; [15],10
same,"Pigweed, Redroot damage rating",[11]; [16],20
same,Velvetleaf damage rating,[12]; [14],0
same,Velvetleaf damage rating,[12]; [15],10
same,Velvetleaf damage rating,[12]; [16],0
